In patent publication US10604739B2, “Cardiomyocyte production” (Cellular Dynamics International, Inc., priority 2009, dated 2020):

Assays:
Type in all cases: cell-based, human
iPS6.1 and H9-TGZ cells = test: Meta-analysis of paired conditions with and without 50 ng/mL HGF
Method: A meta-analysis across these experiments was performed to assess whether the inventors could detect any measurable benefit of including HGF in the induction medium. This analysis reviewed all the available experiments for paired conditions with and without 50 ng/mL HGF. […] This left 14 paired conditions (11 performed in triplicate within an experiment). To aid in this analysis, a process raw material cost model was employed to estimate the cost per million cardiomyocytes under each condition. This model used the most up-to-date raw material cost and process information available at the time (˜Jun. 1, 2009).

iPS6.1-MRB cells = test: iPS-MRB 1 L spinner qualification runs with and without HGF; conditions: for CM/L (millions) / Purity (% RFP+): +HGF, 1 L spinner flask
Method: IPS-MRB cells were maintained on Matrigel™ in TeSR medium (from Stem Cell Technologies) no later than when they would normally be ready to be passaged. IPS cells were grown in T-150 flasks throughout this example, but can be scaled for starting cells in other culture formats. Five T-150 flasks of iPS cells were harvested: media were aspirated and cells were incubated with 12 mL room temperature TrypLe™ (Invitrogen), a recombinant typsin-like enzyme, at 37° C. for 7 minutes. The cells were then transferred to five 50 ml conical tubes (one tube for each T-150 flask) containing 12 ml DMEM/F12 (GIBCO) with 10% fetal calf serum (FCS) (Chemicon). The cells were then pelleted at 1200 rpm for 5 minutes and supernatant aspirated. The pellet was resuspended in 10 mL aggregate promotion medium (TeSR medium containing 25 μg/ml Gentamicin, 1 μM H1152, and with or without 50 ng/ml human recombinant HGF). The resuspended pellet were combined into a single 250 ml conical tube (allowing volume for later dilution), if necessary. Cells were counted using CEDEX HiRES cell counter and then diluted to 1.0×10^6 cells/mL. Each 500 mL diluted cell stock was dispensed into one 1 L spinner flask (leaving room in spinner flasks for later dilution) and the flasks were placed on magnetic stir platform with a speed of 50 RPM (both side caps were loosed by two full turns to allow gas transfer).
On the next day (Day 1), flasks containing the cells were set in cell culture hood and suspended aggregate allowed to settle to the bottom of the flasks for 30 minutes. The spent media were aspirated using a 2 mL aspirating pipet with approximately 100 mL left in the flasks (if films of cells form on bottom after setting, shake flask back and forth in each direction to break them up before adding medium). Aggregate transition medium (50% TeSR medium, 45% DMEM containing GlutaMax™, 5% ES-qualified FCS, 25 μg/ml Gentamicin, 1 μM H1152, and with or without 50 ng/ml HGF) were added to the flasks using Pipeline machine to bring to the original volume. The flasks were returned to the stirring platform inside a 7% CO2 incubator and the agitator was started to operate at 50±1 RPM (both side caps were loosed by two full turns to allow gas transfer).
On Day 2, flasks containing the cells were set in cell culture hood and suspended aggregate allowed to settle to the bottom of the flasks for 15 minutes. The spent media were aspirated with approximately 100 mL left in the flasks. Aggregate suspension were gently mixed in flasks, and cardiac induction medium (90% TeSR medim, 10% ES-qualified FCS, 25 μg/ml Gentamicin, 50 ng/ml human recombinant bFGF, and with or without 50 ng/ml human recombinant HGF) were added to each flask to 1 L (2× dilution) with Pipeline machine. The flasks were returned to the stirring platform inside a 7% CO2 incubator and the agitator was started to operate at 50±1 RPM (both side caps were loosed by two full turns to allow gas transfer).
On Day 3, flasks containing the cells were set in cell culture hood and suspended aggregate allowed to settle to the bottom of the flasks for 15 minutes. The spent media were aspirated with approximately 100 mL left in the flasks. Spinner flasks were shaken back and forth to break large clumps. Cardiac induction medium were added back to each flask to bring back to the original volume for Days 3-7; cardiac maintenance medium were exchanged instead for Days 8, 10, 12. After every media exchange, the flasks were returned to the stirring platform inside a 7% CO2 incubator and the agitator was started to operate at 50±1 RPM (both side caps were loosed by two full turns to allow gas transfer).
Cell cultures were analyzed on Day 14 by total cell counting per flask at harvest, cTNT or RFP purity at harvest. Aggregate count was also carried on Day 2 and final stage and aggregate pictures were taken.
Three qualification runs were performed to confirm at large scale and with iPS6.1-MRB cells that removal of HGF has no measurable effect. […]

iPS6.1 cells = test: iPS6.1 Growth Factor Titration #1; conditions: HGF 0, 5, 20, 50, 150 ng/mL
Method: (§1) Aggregate formation and cardiac induction procedures of those iPS cells at different initial densities were performed essentially the same as described in Examples 4 except different concentrations of human HGF (hHGF) and FGF were applied to Aggregate Formation Medium, Aggregate Transition Medium and Cardiac Induction Medium.
Conditions without FGF had virtually no surviving aggregates and no measurable cardiomyocytes (FIGS. 29A-B). On the other hand, all conditions with FGF yielded cardiomyocytes independent of HGF concentration (FIGS. 29A-B).

H9-TGZ cells [1] = test: H9-TGZ Growth Factor Titration #2; conditions: HGF 0, 20, 50
Method: as §1
While the iPS6.1 optimization was underway, a separate series of experiments was conducted to optimize the growth factor concentrations for the H9-TGZ cells. […] Therefore, the FGF range tested was higher than that in the recent iPS6.1 experiments. This experiment confirmed that optimum cardiomyocyte production requires 100-150 ng/mL FGF with the H9-TGZ cells (FIGS. 31A-C).

H9-TGZ cells [2] = test: H9-TGZ Growth Factor Titration #2 (repeat); conditions: FIGS. 32A-C
Method: as §1
Due to the issues with aggregate formation noted above, the H9-TGZ growth factor titration experiment was repeated. […] However, it is important to note that despite the overall poor performance of the cultures, the usual and expected decrease in performance at low FGF level was still discernable (FIGS. 32A-C).

[3] = First iPS 4-corners, head-to-head pairings with purity >1%
[4] = First iPS GF matrix, head-to-head pairings with purity >1%
[5] = H9-TGZ Matrix #2, head-to-head pairings with purity >1%
[6] = H9-TGZ Matrix #2 repeat, head-to-head pairings with purity >1%
[7] = HGF Conc 50 ng/mL, 14 paired conditions
[8] = Second iPS GF matrix, head-to-head pairings with purity >1%
[9] = Total of all experiments, head-to-head pairings with purity >1%

Substance: HGF: human recombinant HGF (hepatic growth factor), R&D systems
- Fraction with better CM/L @ 50 ng/mL HGF than 0 (iPS6.1 and H9-TGZ cells; [3]): 0/1
- Fraction with better iPS:CM ratio @ 50 ng/mL HGF than 0 (iPS6.1 and H9-TGZ cells; [3]): 0/1
- Fraction with better CM/L @ 50 ng/mL HGF than 0 (iPS6.1 and H9-TGZ cells; [4]): 3/4
- Fraction with better iPS:CM ratio @ 50 ng/mL HGF than 0 (iPS6.1 and H9-TGZ cells; [4]): 3/4
- Fraction with better CM/L @ 50 ng/mL HGF than 0 (iPS6.1 and H9-TGZ cells; [5]): 2/4
- Fraction with better iPS:CM ratio @ 50 ng/mL HGF than 0 (iPS6.1 and H9-TGZ cells; [5]): 2/4
- Fraction with better CM/L @ 50 ng/mL HGF than 0 (iPS6.1 and H9-TGZ cells; [6]): 0/1
- Fraction with better iPS:CM ratio @ 50 ng/mL HGF than 0 (iPS6.1 and H9-TGZ cells; [6]): 0/1
- CM/L, Average (iPS6.1 and H9-TGZ cells; [7]): 49
- CM/L, Best (iPS6.1 and H9-TGZ cells; [7]): 140
- CM/L, Worst (iPS6.1 and H9-TGZ cells; [7]): 1.5
- iPS:CM, Average (iPS6.1 and H9-TGZ cells; [7]): 100
- iPS:CM, Best (iPS6.1 and H9-TGZ cells; [7]): 7
- iPS:CM, Worst (iPS6.1 and H9-TGZ cells; [7]): 712
- Fraction with better CM/L @ 50 ng/mL HGF than 0 (iPS6.1 and H9-TGZ cells; [8]): 2/4
- Fraction with better iPS:CM ratio @ 50 ng/mL HGF than 0 (iPS6.1 and H9-TGZ cells; [8]): 2/4
- Fraction with better CM/L @ 50 ng/mL HGF than 0 (iPS6.1 and H9-TGZ cells; [9]): 7/14
- Fraction with better iPS:CM ratio @ 50 ng/mL HGF than 0 (iPS6.1 and H9-TGZ cells; [9]): 7/14
- Effect of HGF in cardiomyocyte production process (on average) (iPS6.1 and H9-TGZ cells; with vs without 50 ng/mL HGF, 14 paired conditions): no measurable positive or negative effect
- Effect of HGF addition on yields (iPS6.1-MRB cells; "normal" run, 1 L spinner): no effect
- CM/L (millions) (iPS6.1-MRB cells; Run #1 (Jun. 6, 2009)): 48.9 millions
- Purity (% RFP+) (iPS6.1-MRB cells; Run #1 (Jun. 6, 2009)): 6.6%
- CM/L (millions) (iPS6.1-MRB cells; Run #2 (Jun. 10, 2009)): 17.5 millions
- Purity (% RFP+) (iPS6.1-MRB cells; Run #2 (Jun. 10, 2009)): 3.7%
- CM/L (millions) (iPS6.1-MRB cells; Run #3 (Jun. 14, 2009)): 10.0 millions
- Purity (% RFP+) (iPS6.1-MRB cells; Run #3 (Jun. 14, 2009)): 2.6%
- Trend in cardiomyocyte yield or iPS:CM ratio across HGF concentrations (iPS6.1 cells): no consistent trend in cardiomyocyte yield or iPS:CM ratio
- Trend in process efficiency across different HGF concentrations (H9-TGZ cells [1]): No trend was observed in process efficiency
- Trend of culture performance across HGF concentrations (H9-TGZ cells [2]): no observable trend of culture performance
